Converted amounts (≈) assume the structure as drawn. Like-named read-outs stand apart in the source and are kept apart here.
How the values were obtained:
HIV-1 strain NL4.3 = assay: Anti-HIV-1 assay in MT-4 cells (p24 Ag ELISA, Example 3); type: cell-based
Procedure: Antiviral Assays. For HIV-1, MT-4 cells were infected with the HIV-1 strain NL4.3. Briefly, five-fold dilutions of the compounds (in 100 μl) were added to 96-well flat bottom plates (Iwaki, Japan). Then, to each well, 7.5×10^4 MT-4 cells were added in 50 μl medium, followed by 50 μl of diluted HIV-1 stock (strain NL4.3). Cytopathic effect (CPE) induced by the virus was checked regularly microscopically. When strong CPE was observed (after 3 to 5 days of incubation) in untreated HIV-1 infected cells, the supernatant was collected, stored at −20° C. and analyzed for HIV-1 core antigen by p24 Ag ELISA (NEN™, PerkinElmer Life Sciences, Boston, Mass.). Finally, the IC50 value of the compounds (i.e., the concentration of the compound required for 50% reduction of HIV infection as measured by viral p24 antigen level in the supernatant of infected MT-4 cells) was calculated.

CD4 [1] = target: T1, CD4 (Homo sapiens, UniProt P01730); assay: CD4 down-modulation, flow cytometry with FITC-conjugated anti-CD4 (SK3) mAb, MT-4 cells; type: cell-based; set-up: To study the effect of the CADA derivatives on surface CD4 antigen expression, MT-4 and SupT1 cells were incubated; endogenous in cells; host or cells: MT-4, SupT1, PBMC; details: for IC50: MT-4 cells, day 3, read-out: IC50 CD4 (50% inhibition of extracellular CD4 expression) (converted); for CD4 down-modulating activity compared with CADA or parent analog (in words): structure-activity discussion of Table 5 (MT-4 and SupT1 cells); for CD4 down-modulating activity, fold less active than CADA: compared to CADA, MT-4 cells (stated for some compounds)
Procedure: Flow Cytometric Analyses. To study the effect of the CADA derivatives on surface CD4 antigen expression, MT-4 and SupT1 cells were incubated with a serial 5-fold dilution of the compounds (50, 10, 2, 0.4 and 0.08 μg/ml) or medium at 37° C. […] Briefly, after washing with phosphate-buffered saline (PBS) containing 2% fetal calf serum (FCS), cells were incubated with FITC-conjugated anti-CD4 (SK3) mAb for 30 min at 4° C. As a negative control for a specific background staining, cells were stained in parallel with Simultest Control γ1/γ^2a (Becton Dickinson). Then the cells were washed, fixed with 1% formaldehyde and analyzed by flow cytometry in a FACScalibur (Becton Dickinson, San Jose, Calif., USA). Data were acquired and analyzed with CellQuest software (Becton Dickinson). For the calculation of the CD4 receptor expression, the mean fluorescence intensity (MFI) of each sample was expressed as percentage of the MFI of control cells (after subtracting the MFI of the isotype control). Finally, the IC50 value of the compounds (i.e., the concentration of the compound required for 50% inhibition of extracellular CD4 expression) was calculated.

[2] = Cytotoxicity assay (trypan blue exclusion, propidium iodide); type: cell-based, human; details: human, read-out: CC50 (50% cytotoxic concentration)
Procedure: Cytotoxicity Assay. Cellular toxicity of the compounds was measured by trypan blue exclusion and also by Propidium Iodide by flow cytometry after 3 or 4 days of incubation, in parallel with the CD4 antigen expression. The CC50 value of each CADA analog is the concentration (in μg/ml) required to reduce the viability of the cells by 50%.

HHV-7 (KHR strain) = assay: Anti-HHV-7 assay in SupT1 cells (antigen expression, flow cytometry, Example 3); type: cell-based
Procedure: For HHV-7, five-fold dilutions of the compounds were added in 500 μl culture medium in 24-well flat bottom plates (Iwaki, Japan), whereupon 2×10^5 SupT1 cells were added in 400 μl culture medium. After 30 min incubation at room temperature, 100 μl of HHV-7 stock was added to each well. HHV-7-infected and mock-infected SupT1 cells were cultured in a final volume of 1 ml medium in the absence of the compounds. On day 4, half of the medium and the cells were replaced and fresh medium without new compound was added. This procedure was repeated every 2 or 3 days. The CPE was checked regularly microscopically. When CPE was observed, the HHV-7 antigen expression was monitored by flow cytometry, as described previously (Zhang, Y. et al. (1999) “Selective activity of various antiviral compounds against HHV-7 infection Antiviral Res. 43, 23-35.)

CD4 [3] = target: T1, CD4; assay: CD4 down-modulation, flow cytometry with FITC-conjugated anti-CD4 (SK3) mAb, SupT1 cells; type: cell-based; set-up: To study the effect of the CADA derivatives on surface CD4 antigen expression, MT-4 and SupT1 cells were incubated; endogenous in cells; host or cells: MT-4, SupT1, PBMC; details: for IC50: day 4, read-out: IC50 CD4 (50% inhibition of extracellular CD4 expression) (converted)
Procedure: Flow Cytometric Analyses. To study the effect of the CADA derivatives on surface CD4 antigen expression, MT-4 and SupT1 cells were incubated with a serial 5-fold dilution of the compounds (50, 10, 2, 0.4 and 0.08 μg/ml) or medium at 37° C. Cell surface CD4 antigen expression was analyzed at day 3 (MT-4) or day 4 (SupT1). Briefly, after washing with phosphate-buffered saline (PBS) containing 2% fetal calf serum (FCS), cells were incubated with FITC-conjugated anti-CD4 (SK3) mAb for 30 min at 4° C. As a negative control for a specific background staining, cells were stained in parallel with Simultest Control γ1/γ^2a (Becton Dickinson). Then the cells were washed, fixed with 1% formaldehyde and analyzed by flow cytometry in a FACScalibur (Becton Dickinson, San Jose, Calif., USA). Data were acquired and analyzed with CellQuest software (Becton Dickinson). For the calculation of the CD4 receptor expression, the mean fluorescence intensity (MFI) of each sample was expressed as percentage of the MFI of control cells (after subtracting the MFI of the isotype control). Finally, the IC50 value of the compounds (i.e., the concentration of the compound required for 50% inhibition of extracellular CD4 expression) was calculated.

CD4 [4] = target: T1, CD4; assay: Cell surface CD4 expression by flow cytometry (anti-CD4 mAb Leu3a-PE); type: cell-based; set-up: To study the effect of the CADA derivatives on surface CD4 antigen expression, MT-4 and SupT1 cells were incubated; endogenous in cells; host or cells: MT-4, SupT1, PBMC
Procedure: FIGS. 2A-2C. Surface CD4 expression in MT-4 cell line, SupT1 cell line and PBMCs after incubation with CADA hydrochloride (3.2 or 16 μM) for 1 and 4 days. (A) Cell surface CD4 expression of control MT-4 cells and MT-4 cells treated with CADA (3.2 μM) for 1 day or 4 days. (B) Cell surface CD4 expression of control SupT1 cells and SupT1 cells treated with CADA (3.2 μM) for 1 day or 4 days. (C) Cell surface CD4 expression of control PBMCs and PBMCs treated with CADA (16 μM) for 1 day or 4 days. The cells were stained with anti-CD4 mAb (Leu3a-PE). Percentages of fluorescent cells and MFI (mean fluorescence intensity) are indicated in each histogram.
FIG. 4. Comparison of the effects on CD4 modulation by ATA (24 μM), CADA hydrochloride (16 μM) and PMA (8 nM) in SupT1 cells after incubation with the compounds analyzed after 20 minutes, 4 hours, 1 day and 4 days.
Cells were incubated with CADA hydrochloride and the CD4 expression on the cell surface was analyzed. […] In peripheral blood mononuclear cells (PBMCs), the percentage of CD4 expression decreased to 0.2% after incubation with CADA (16 μM) for 4 days (FIG. 2).
Expression of various other surface antigens was also examined in MT-4 cells, SupT1 cells and PBMCs after incubation with CADA (16 μM) or CADA-free medium at 37° C. for 4 days. After washing with phosphate-buffered saline (PBS) containing 2% FCS(fetal calf serum), the cells were incubated with mAb (as indicated in Table 1) for 20 min at 4° C. Then the cells were washed, fixed with 1% formaldehyde and analyzed by flow cytometry. All mAbs were purchased from Becton-Dickinson (Erembodegem, Belgium).
CADA was compared with ATA and PMA with regard to their down-modulating effects. […] At day 4, the CD4 expression in SupT1 cells treated with CADA reduced to 1.2%.

[5] = Human immunodeficiency virus 1, MT4, MT-4 cells, read-out: IC50 HIV-1 (NL4.3), p24 Ag ELISA
[6] = SUP-T1, SupT1 cells, read-out: IC50 HHV-7 (50% reduction of HHV-7 antigen expression)

Row | SMILES | IC50 (HIV-1 strain NL4.3; [5]) [µg/mL] | IC50 (CD4 [1]) [µM] | CD4 down-modulating activity compared with CADA or parent analog (in words) (CD4 [1]) | CC50 ([2]; MT-4 cells) [µg/mL] | CC50 ([2]; SupT1 cells) [µg/mL] | IC50 (HHV-7 (KHR strain); [6]) [µg/mL] | IC50 (CD4 [3]) [µM] | CD4 down-modulating activity, fold less active than CADA (CD4 [1]) [fold] | down-regulation of CD4 expression (in words) (CD4 [4]) | IC50 (HIV-1 strain NL4.3; Human immunodeficiency virus 1, MT4, read-out: IC50 HIV-1 (NL4.3), p24 Ag ELISA) [µg/mL] | IC50 (HHV-7 (KHR strain); SUP-T1, read-out: IC50 HHV-7 (50% reduction of HHV-7 antigen expression)) [µg/mL] | CD4 down-regulation (in words) (CD4 [3])
1 | C=C1CN(S(C)(=O)=O)CCCN(Cc2ccccc2)CCCN(S(C)(=O)=O)C1 [MFS105] | > 50 | > 116 | significant loss | > 50 | > 50 | > 50 | > 116 | – | – | – | – | –
2 | C=C1CN(S(=O)(=O)c2ccc(COCCCC)cc2)CCCN(Cc2ccccc2)CCCN(S(=O)(=O)c2ccc(COCCCC)cc2)C1 [MFS117] | ≥ 10 | > 13.8 | significant loss | 18.9 (≈ 26 µM) | > 50 | 0.92 (≈ 1.27 µM) | > 68.9 | – | – | – | – | –
3 | Cc1ccc(S(=O)(=O)N2CCCN(Cc3ccccc3)CCCN(S(=O)(=O)c3ccc(C)cc3)CCC2)cc1 [MFS-SC001] | > 10 | 12.4 | – | 23.1 (≈ 40.5 µM) | 32.2 (≈ 56.5 µM) | 0.65 (≈ 1.14 µM) | 7.18 | 20 | – | – | – | –
4 | C=C1CN(S(=O)(=O)c2ccc(C)cc2)CCCN(CC2CC=CCC2)CCCN(S(=O)(=O)c2ccc(C)cc2)C1 (stereo not drawn) [QJ023] | 0.29 (≈ 0.495 µM) | 0.444 | slightly enhanced | 22.2 (≈ 37.9 µM) | 28.9 (≈ 49.3 µM) | 0.1 (≈ 0.171 µM) | 0.615 | – | down-regulate CD4 expression | – | – | –
5 | C=C1CN(S(=O)(=O)c2ccc(C)cc2)CCCN(Cc2ccc[nH]2)CCCN(S(=O)(=O)c2ccc(C)cc2)C1 [QJ027] | – | 6.78 | – | 20.2 (≈ 35.4 µM) | 21.7 (≈ 38 µM) | – | 10.5 | 10 | down-regulate CD4 expression | 4.4 (≈ 7.71 µM) | 3.1 (≈ 5.43 µM) | –
6 | C=C1CN(S(=O)(=O)c2ccc(C)cc2)CCCN(CCC)CCCN(S(=O)(=O)c2ccc(C)cc2)C1 [QJ029] | 2 (≈ 3.75 µM) | 4.83 | somewhat in between | 20.7 (≈ 38.8 µM) | 22.2 (≈ 41.6 µM) | 0.91 (≈ 1.7 µM) | 5.73 | – | down-regulate CD4 expression | – | – | –
7 | C=C1CN(S(=O)(=O)c2ccc(C)cc2)CCCN(Cc2ccncc2)CCCN(S(=O)(=O)c2ccc(C)cc2)C1 [QJ030] | 2.36 (≈ 4.05 µM) | 4.41 | – | 21.3 (≈ 36.5 µM) | > 50 | 1.59 (≈ 2.73 µM) | 12.4 | 9 | down-regulate CD4 expression | – | – | –
8 | C=C1CN(S(=O)(=O)c2ccc(C)cc2)CCCN(C(C)C)CCCN(S(=O)(=O)c2ccc(C)cc2)C1 [QJ035] | 5.55 (≈ 10.4 µM) | 11.4 | – | 22.2 (≈ 41.6 µM) | 23 (≈ 43.1 µM) | 1.4 (≈ 2.62 µM) | > 18.7 | 17 | down-regulate CD4 expression | – | – | not active
9 | C=C1CN(S(=O)(=O)c2ccc(C)cc2)CCCN(C(C)CC)CCCN(S(=O)(=O)c2ccc(C)cc2)C1 (stereo not drawn) [QJ036] | 0.95 (≈ 1.73 µM) | 2.12 | somewhat in between | 20.9 (≈ 38.2 µM) | > 50 | 1.19 (≈ 2.17 µM) | 3.27 | – | down-regulate CD4 expression | – | – | –
10 | C=C1CN(S(=O)(=O)c2ccc(C)cc2)CCCN(CC(C)CC)CCCN(S(=O)(=O)c2ccc(C)cc2)C1 (stereo not drawn) [QJ037] | 0.48 (≈ 0.854 µM) | 0.943 | – | 22.1 (≈ 39.3 µM) | 24 (≈ 42.7 µM) | 0.13 (≈ 0.231 µM) | 1.23 | – | down-regulate CD4 expression | – | – | –
11 | C=C1CN(S(=O)(=O)c2ccc(C)cc2)CCCN(CCC(C)C)CCCN(S(=O)(=O)c2ccc(C)cc2)C1 [QJ038] | 0.31 (≈ 0.552 µM) | 0.73 | – | 19.4 (≈ 34.5 µM) | 8.4 (≈ 15 µM) | 0.34 (≈ 0.605 µM) | 0.854 | – | down-regulate CD4 expression | – | – | –

Source: patent US20040220164A1, “Triaza compound immunoregulatory agents” (priority 2001, published 2004)
